Assays:
[1] = Microsomal stability, mouse liver microsomes (Table 1); format: in vitro ADME, Mouse: CD1; details: CD1, mouse, liver microsomes, Mouse: CD1; read-out: Microsomal Stability t1/2
Method: Each compound (1 μM) is incubated with mouse plasma, for 4 hours at 37° C., with shaking at 100 rpm. The concentration of compound in the buffer and plasma chambers is determined using LC-MS/MS. Metabolism of each compound is predicted using Sites of Metabolism (Schrodinger Suite), which combines intrinsic reactivity analysis (Hammett-Taft) with induced fit docking against 2C9, 2D6 and 3A4. This approach identifies 90% of known metabolism sites and has a false positive rate of 17%. The in vitro metabolic stability of each compound in mouse liver microsomes is determined. Pooled mouse liver microsomes are prepared and stored at −80° C. until needed. […]

[2] = Microsomal stability, rat (Table 1); format: in vitro ADME; details: liver microsomes; Rat: Sprague Dawley; read-out: Microsomal Stability t1/2 (converted)
[3] = Microsomal stability, pig (Table 1); format: in vitro ADME; details: liver microsomes; Pig: Göttingen Minipig; read-out: Microsomal Stability t1/2
[4] = Mouse; value marked ^1, Hofmans et al., 2016; cited from earlier work
[5] = TH-2-31 IP PK Study, 40 mg/kg; format: in vivo, C57BL/6 mice; details: 40 mg/kg IP, up to eight hours
Method: C57BL/6 mice (8-weeks of age and ˜25 g weight) were weighed before injection and divided into groups of 2 male and female mice per cage. TH-2-31 was dissolved in 5% DMSO/95% of 65% v/v of 25% w/v 2-hydroxypropyl-3-cyclodextrin (Cayman Chemical) dissolved in 20% EtOH, 30% v/v Poly(ethylene glycol)-400 (Sigma Aldrich 202398), 5% v/v Tween 80 (Fluka 59924) to create a 4 mg/mL solution. The same formulation without TH-2-31 was used as a vehicle control. The solution was sterilized using a […] Steriflip filter unit (Thomas Scientific 1189Q46). Mice were dosed IP and euthanized by CO2 asphyxiation for 3 min at 0, 1, 2, 4, and 8 h after administration. To ensure that the vehicle was well-tolerated 4 mice were treated with vehicle and euthanized 4 h after administration. ˜0.5 mL of blood was collected via cardiac puncture and immediately put in K3 EDTA microtubes ([…] 41.1504.105) and kept on ice. Organs were harvested, placed in Eppendorf tubes, and frozen on dry ice. Blood samples were centrifuged for 10 min at 2,100×g at 4° C., then plasma was transferred to a clean tube and frozen on dry ice. […] After drying, the samples were resuspended in 100 μL of methanol and analyzed by UPLC-MS described below. The concentration of TH-2-31 was determined against a standard curve with a linear fit and the data plot in GraphPad Prism 9 and fit with a one phase decay. […]

Row | Compound | half-life [1] | half-life [2] | half-life [3] | Microsomal Stability t1/2 [4] | accumulation in plasma and brain, in words [5]
1 | CCOC(=O)c1ccc(NC2CCCCC2)c(N)c1 [Fer-1, Ferrostatin-1, reference compound] | 2.4 min | 3 min | 16.2 min | 1.9 ± 0.6 min | –
2 | Cc1noc(-c2cnc(NC3CCCCC3)c(NC3CCCCC3)c2)n1 [TH-2-31, N^2,N^3-dicyclohexyl-5-(3-methyl-1,2,4-oxadiazol-5-yl)pyridine-2,3-diamine] | – | – | – | – | stably accumulate at micromolar concentrations in plasma and brain even eight hours after

— patent publication US20240156790A1, “COMPOUNDS, COMPOSITIONS, AND METHODS FOR MODULATING FERROPTOSIS AND TREATING EXCITOTOXIC DISORDERS” (THE TRUSTEES OF COLUMBIA UNIVERSITY IN THE CITY OF NEW YORK, priority 2018, published 2024)
